Results on four molecules are retold here after US20060140858A1, “Drug pre-targeting by means of bi-specific antibodies and hapten constructs comprising a carrier peptide and the active agent(s)” (Immunomedics, Inc., priority 2002, published 2006).

Read-outs that look alike come from different tables or passages of the source. *1 amine or outer side, *2 acyl side, *3 side chain or, on linkers, in order; H or OH if unused. Where a SMILES comes first, the peptide text is derived from it. Side-chain parts run from the residue outwards. The star is where a group is joined. DOTA = O=C(O)CN1CCN(CC(=O)O)CCN(CC(=O)*)CCN(CC(=O)O)CC1; DTPA = O=C(O)CN(CCN(CC(=O)O)CC(=O)O)CCN(CC(=O)O)CC(=O)*; NH(2-(imidazol-4-yl)ethyl) = c1ncc(CCN*)[nH]1; Suc = O=C(CCC(=O)[*:2])[*:1]; X1 = NC(=S)NN=CC(=O)*

The nature of data set [1]: Control group: 99m-Tc-IMP-192 alone. It counts as in vivo, nude mice. To be noted: female, nude (Taconic NCRNU), mouse, total radioactivity.
Data set [2] in a line: Clearance of 99m-Tc-IMP-192 in BALB/c mice. It counts as in vivo.
A short description of data set [3]: Pretargeting: 125-I-hMN-14 × 734 bsAb, 24 h later 99m-Tc-IMP-192, biodistribution. The class given is in vivo, Nude mice. To be noted: female, mouse, total radioactivity; for tissue uptake at 0.5 h: 30 min post peptide; for tissue uptake at 1 h: 1 h post peptide; for tissue uptake at 3 h: 3 h post peptide; for tissue uptake at 24 h: 24 h post peptide.
Data set [4] is classed as in vitro ADME, mouse. The text has this: The peptide was monitored as described above by HPLC.
In data set [5] the target is peptide containing a single HSG substituent and a thiol (mono HSG peptide). The data set can be described thus: BIAcore, mono HSG peptide coupled to a CM-5 chip. In general terms: SPR reads the build-up and loss of mass on a sensor chip optically.
In data set [6] the target is DOTA-Phe-Lys(HSG)-D-Tyr-Lys(HSG)-NH2 (IMP 241). Kind of data set: in vivo pretargeting, GW-39 tumors, 3 h after 111In-IMP-241.
Data set [7] concerns the target carcinoembryonic antigen (CEA) (UniProt P06731). Kind of data set: SE-HPLC, 125I-labeled bsMAb with an excess of CEA.
The target is the same in data set [8]. Kind of data set: immunoreactivity of 99mTc-hMN-14 Fab′; method and antigen not given.
[9] abbreviates: Cys Challenge 1 mM in 0.05 M phosphate pH 7.5 Room Temp., 1 hr.
Where [10] appears, read: Saline Dilution Room Temp., 19 hr.
Setting [11] is: Saline Dilution Room Temp., […].

carcinoembryonic antigen (CEA), sequence (P06731 35-685 limits assumed): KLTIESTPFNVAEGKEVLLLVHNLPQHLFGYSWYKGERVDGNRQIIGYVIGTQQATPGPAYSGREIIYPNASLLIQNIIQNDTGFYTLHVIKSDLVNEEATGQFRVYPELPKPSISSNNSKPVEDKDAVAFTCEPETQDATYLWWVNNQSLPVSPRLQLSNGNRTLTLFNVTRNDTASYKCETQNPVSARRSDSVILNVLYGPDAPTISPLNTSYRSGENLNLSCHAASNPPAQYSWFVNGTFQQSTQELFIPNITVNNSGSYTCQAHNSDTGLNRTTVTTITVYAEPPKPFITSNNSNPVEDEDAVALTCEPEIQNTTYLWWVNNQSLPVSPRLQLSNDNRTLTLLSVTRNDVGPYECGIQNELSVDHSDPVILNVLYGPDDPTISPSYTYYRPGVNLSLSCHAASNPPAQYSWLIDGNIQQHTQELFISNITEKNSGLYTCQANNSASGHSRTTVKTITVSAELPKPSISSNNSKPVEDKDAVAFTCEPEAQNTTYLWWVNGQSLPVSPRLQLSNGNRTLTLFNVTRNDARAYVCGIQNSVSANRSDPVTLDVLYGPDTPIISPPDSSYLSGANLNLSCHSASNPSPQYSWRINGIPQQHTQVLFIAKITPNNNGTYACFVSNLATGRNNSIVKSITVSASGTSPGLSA

One may read the tissue uptake as the share of the injected amount in each gram of the tissue. Turning to `CC(=O)N[C@@H](CCCCNC(=O)CN(CCN(CCN(CC(=O)O)CC(=O)O)CC(=O)O)CC(=O)O)C(=O)N[C@@H](Cc1ccc(O)cc1)C(=O)N[C@@H](CCCCNC(=O)CN(CCN(CCN(CC(=O)O)CC(=O)O)CC(=O)O)CC(=O)O)C(=O)N[C@@H](CCCCNC(=O)[C@H](CS)NC(=O)C=NNC(N)=S)C(N)=O` [IMP 192, Ac-Lys(DTPA)-Tyr-Lys(DTPA)-Lys(Tscg-Cys)-NH2] (Ac-K(DTPA)YK(DTPA)K([Cys-X1])-NH2), the “Origin (ITLC 24 hr Saturated NaCl)” value was found to be 91.3% Origin (Cys Challenge), 94% Origin (Kit Room Temp.) and 97% Origin (Saline Dilution Room Temp.). For the same molecule, the “Solvent Front (ITLC 24 hr Saturated NaCl)” value is, setting by setting: (Cys Challenge) 7.4% Solvent; (Kit Room Temp.) 5% Solvent Front; (Saline Dilution Room Temp.) 2.3% Solvent. The “Peptide (HPLC)” value amounted to 98% Peptide under setting [9]; 89% Peptide (Cys Challenge, 19.5 hr); 99% Peptide (Kit Room Temp., 3 hr); 95% Peptide (Kit Room Temp., 21 hr); 99% Peptide (Kit Room Temp., Initial Label); 96% Peptide under setting [10]. Moreover, the “Peptide (HPLC)” value under setting [11] was found to be 99% Peptide. In addition, the “Void Vol (HPLC)” value came to 2% Void Vol under setting [9]; 11% Void Vol (Cys Challenge, 19.5 hr); 1% Void Vol (Kit Room Temp., 3 hr); 5% Void Vol (Kit Room Temp., 21 hr); 1% Void Vol (Kit Room Temp., Initial Label); 4% Void Vol under setting [10]. Moreover, under setting [11], the “Void Vol (HPLC)” value was 1% Void Vol. Besides, the tissue uptake at 3 h worked out at 2.6 ± 0.9 %ID/g in data set [1] (Kidney); 0.3 ± 0.07 %ID/g in data set [1] (Liver); 0.1 ± 0.05 %ID/g in data set [1] (Spleen); 0.6 ± 0.1 %ID/g in data set [3] (NCRNU nude, Liver); 0.5 ± 0.1 %ID/g in [3] (NCRNU nude, Spleen); 12.6 ± 5.2 %ID/g in data set [3] (NCRNU nude, Tumor). The tissue uptake at 3 h in data set [3] (nude (Taconic NCRNU), Blood) came out at 1.7 ± 0.4 %ID/g; in [3] (nude (Taconic NCRNU), Kidney), 2.4 ± 0.5 %ID/g; in data set [3] (nude (Taconic NCRNU), Lungs), 1 ± 0.3 %ID/g. Moreover, the tissue uptake at 2 h in data set [2] (BALB/c, mouse, large intestine, total radioactivity, Lg.Int., 2 h) is 1.53 ± 0.45 %ID/g; in data set [2] (BALB/c, mouse, small intestine, total radioactivity, Small int, 2 h), 0.6 ± 0.06 %ID/g; in data set [2] (BALB/c, mouse, total radioactivity, Blood, 2 h) it was 0.21 ± 0.03 %ID/g; in [2] (BALB/c, mouse, total radioactivity, Liver, 2 h) it was 0.22 ± 0.16 %ID/g; in [2] (BALB/c, mouse, total radioactivity, Muscle, 2 h), 0.05 %ID/g; in data set [2] (BALB/c, mouse, Kidney, 2 h) it was 4.05 ± 0.6 %ID/g. Besides, the tissue uptake at 2 h in data set [2] (BALB/c, mouse, Lungs, 2 h) was determined as 0.29 ± 0.08 %ID/g; in data set [2] (BALB/c, mouse, Spleen, 2 h) it was 0.09 ± 0.3 %ID/g. The tissue uptake at 4 h amounted to 1.58 ± 0.7 %ID/g in data set [2] (BALB/c, mouse, large intestine, total radioactivity, Lg.Int., 4 h); 0.21 ± 0.09 %ID/g in [2] (BALB/c, mouse, small intestine, total radioactivity, Small int, 4 h); 0.14 ± 0.04 %ID/g in data set [2] (BALB/c, mouse, total radioactivity, Blood, 4 h); 0.03 ± 0.01 %ID/g in [2] (BALB/c, mouse, total radioactivity, Muscle, 4 h); 0.27 ± 0.33 %ID/g in [2] (BALB/c, mouse, total radioactivity, Stomach, 4 h); 3.21 ± 0.99 %ID/g in [2] (BALB/c, mouse, Kidney, 4 h). Moreover, the tissue uptake at 4 h in data set [2] (BALB/c, mouse, Liver, 4 h) was found to be 0.09 ± 0.02 %ID/g; in data set [2] (BALB/c, mouse, Lungs, 4 h), 0.19 ± 0.04 %ID/g; in data set [2] (BALB/c, mouse, Spleen, 4 h), 0.05 ± 0.02 %ID/g. Moreover, the tissue uptake at 24 h in data set [2] (BALB/c, mouse, large intestine, total radioactivity, Lg.Int., 24 h) amounted to 0.15 ± 0.14 %ID/g; in data set [2] (BALB/c, mouse, small intestine, total radioactivity, Small int, 24 h), 0.03 ± 0.01 %ID/g; in data set [2] (BALB/c, mouse, total radioactivity, Blood, 24 h) it was 0.05 ± 0.01 %ID/g; in data set [2] (BALB/c, mouse, total radioactivity, Stomach, 24 h) it was 0.02 ± 0.01 %ID/g; in data set [2] (BALB/c, mouse, Kidney, 24 h) it was 1.21 ± 0.08 %ID/g; in data set [2] (BALB/c, mouse, Liver, 24 h), 0.04 %ID/g. For the same molecule, the tissue uptake at 24 h in [2] (BALB/c, mouse, Lungs, 24 h) was determined as 0.05 %ID/g; in data set [2] (BALB/c, mouse, Spleen, 24 h) it was 0.03 ± 0.01 %ID/g; in data set [3] (NCRNU nude, Tumor), 8.7 ± 3.3 %ID/g; in [3] (nude (Taconic NCRNU), Blood), 0.6 ± 0.2 %ID/g; in data set [3] (nude (Taconic NCRNU), Kidney), 1.2 ± 0.3 %ID/g; in [3] (nude (Taconic NCRNU), Lungs), 0.3 ± 0.1 %ID/g. The tissue uptake at 1 h was 1.37 ± 0.75 %ID/g in data set [2] (BALB/c, mouse, small intestine, total radioactivity, Small int, 1 h); 0.3 ± 0.09 %ID/g in data set [2] (BALB/c, mouse, total radioactivity, Blood, 1 h); 0.27 ± 0.18 %ID/g in data set [2] (BALB/c, mouse, total radioactivity, Liver, 1 h); 0.1 ± 0.06 %ID/g in [2] (BALB/c, mouse, total radioactivity, Muscle, 1 h); 4.16 ± 0.75 %ID/g in [2] (BALB/c, mouse, Kidney, 1 h); 0.5 ± 0.23 %ID/g in data set [2] (BALB/c, mouse, Lungs, 1 h). For the same molecule, the tissue uptake at 1 h was found to be 0.08 ± 0.01 %ID/g in data set [2] (BALB/c, mouse, Spleen, 1 h); 0.9 ± 0.2 %ID/g in data set [3] (NCRNU nude, Liver); 0.8 ± 0.2 %ID/g in data set [3] (NCRNU nude, Spleen); 14.3 ± 3.6 %ID/g in data set [3] (NCRNU nude, Tumor); 3.5 ± 0.9 %ID/g in data set [3] (nude (Taconic NCRNU), Blood); 4.6 ± 0.7 %ID/g in data set [3] (nude (Taconic NCRNU), Kidney). Besides, the tissue uptake at 1 h in [3] (nude (Taconic NCRNU), Lungs) amounted to 3.6 ± 1.9 %ID/g. In addition, in data set [2] (BALB/c, mouse, total radioactivity, Urine, 1 h), the excreta dose per gram or mL at 1 h is 169 ± 95 %ID/g. Moreover, the excreta dose per gram or mL at 2 h in data set [2] (BALB/c, mouse, total radioactivity, Urine, 2 h) was 57 ± 15 %ID/g. Also, the excreta dose per gram or mL at 4 h in data set [2] (BALB/c, mouse, total radioactivity, Urine, 4 h) is 6.3 ± 4.53 %ID/g. In [2] (BALB/c, mouse, total radioactivity, Urine, 24 h), the excreta dose per gram or mL at 24 h came out at 0.2 ± 0.02 %ID/g. Also, the “% ID/g” value in data set [2] (Muscle, 24 h) was found to be 0.00 ± 0.0 % ID/g. Further, the “in vivo stability (activity excreted in urine, SE-HPLC with antibody)” value in data set [2] (urine from a mouse in a pretargeting experiment) is given as “appears to be the intact peptide”. Moreover, the tissue uptake at 0.5 h in [3] (NCRNU nude, Kidney) was found to be 9.9 ± 6.1 %ID/g; in data set [3] (NCRNU nude, Liver) it was 1.4 ± 0.3 %ID/g; in data set [3] (NCRNU nude, Spleen) it was 1.2 ± 0.4 %ID/g; in data set [3] (NCRNU nude, Tumor), 11.4 ± 4.8 %ID/g; in data set [3] (nude (Taconic NCRNU), Blood) it was 4.3 ± 1.2 %ID/g; in data set [3] (nude (Taconic NCRNU), Lungs), 4.2 ± 3.4 %ID/g.

For `NC(=O)[C@H](CCCCNC(=O)CNC(=O)CCC(=O)NCCc1cnc[nH]1)NC(=O)[C@H](Cc1ccc(O)cc1)NC(=O)[C@H](CCCCNC(=O)CNC(=O)CCC(=O)NCCc1cnc[nH]1)NC(=O)[C@H](Cc1ccccc1)NC(=O)CN1CCN(CC(=O)O)CCN(CC(=O)O)CCN(CC(=O)O)CC1` [IMP 237, DOTA-Phe-Lys(HSG)-Tyr-Lys(HSG)-NH2] ({DOTA}-FK([Gly-Suc-NH(2-(imidazol-4-yl)ethyl)])YK([Gly-Suc-NH(2-(imidazol-4-yl)ethyl)])-NH2), the “converted to the shorter retention time peak” value in data set [4] was “about 70%”.

As a reminder, the Kd is the equilibrium constant for the complex coming apart. On to “hMN-14 × m679 F(ab′)2 bsMAb (bispecific antibody)”, for which the Kd in data set [5] was found to be 1.5 nM. The ratio of the % ID/g of the peptide compared to the bsMAb in the tumor in data set [6] was 3.9. The percent of radiolabeled product shifting to a higher molecular weight in data set [7] is above 90%.

B1: humanized MN-14 (hMN-14) Fab′-SH, 99mTc-labeled (Fab, INN chains, looked up, V domains shown)
VH: EVQLVESGGGVVQPGRSLRLSCSASGFDFTTYWMSWVRQAPGKGLEWIGEIHPDSSTINYAPSLKDRFTISRDNAKNTLFLQMDSLRPEDTGVYFCASLYFGFPWFAYWGQGTPVTVSS
VL: DIQLTQSPSSLSASVGDRVTITCKASQDVGTSVAWYQQKPGKAPKLLIYWTSTRHTGVPSRFSGSGSGTDFTFTISSLQPEDIATYYCQQYSLYRSFGQGTKVEIK
modifications: Fab′ 99mTc label
B1 showed an immunoreactive fraction in [8] of 92%.
